From article PMC9205905, “Core and rod structures of a thermophilic cyanobacterial light-harvesting phycobilisome” (Nature Communications, 2022)

How the values were obtained:
[1] = target: T1, CpcB (phycocyanin beta-subunit) (Thermostichus vulcanus, UniProt Q71RW8); test: cryo-EM structure, […] Å; assay type: binding; conditions: covalent thioether to Cys84 and Cys155 of CpcB
T1 construct: native phycocyanin rod dissociated from intact phycobilisomes; two PC hexamers with linkers CpcC, CpcD, CpcG; with C-phycocyanin alpha subunit

[2] = target: T2, CpcA (phycocyanin alpha-subunit) (Thermostichus vulcanus, UniProt Q9AM02); test: cryo-EM structure, […] Å; assay type: binding; conditions: covalent thioether to Cys84 of CpcA
T2 construct: native phycocyanin rod dissociated from intact phycobilisomes; two PC hexamers with linkers CpcC, CpcD, CpcG; with C-phycocyanin beta subunit

CC=C1C(=Cc2[nH]c(C=C3N=C(C=C4NC(=O)C(CC)=C4C)C(C)=C3CCC(=O)O)c(CCC(=O)O)c2C)NC(=O)[C@@H]1C [phycocyanobilin]
cryo-EM structure, 4.2 Å [1]: Arrangement of chromophores in the PC rod | cryo-EM structure, 4.2 Å [2]: Arrangement of chromophores in the PC rod
